Results on 18 molecules are retold here after patent publication US9359358B2, “Cyclohexyl azetidine derivatives as JAK inhibitors” (Incyte Holdings Corporation, priority 2011, dated 2016).

In test [1] the target is T1, human JAK1 (Homo sapiens, UniProt P23458).
T1 construct: human JAK1 (a.a. 837-1142); His tag (N); made in house; host or cells: insect cells (baculovirus)
The test can be described thus: In Vitro JAK Kinase Assay (HTRF, phosphorylation of a biotinylated peptide), JAK1. The test is classed as biochemical. As to conditions: Table 5; catalytic domain a.a. 837-1142, assay of Example A. In short, it runs like this: (§1)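 HTRF detection (SA-APC plus Eu-labeled anti-phosphotyrosine Py20, 40 min after EDTA stop) quantified biotinylated-peptide phosphorylation. Kinase reactions with human JAK1 or JAK2 catalytic domains lasted 1 h at room temperature.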

Test [2] deals with T2, human JAK2 (Homo sapiens, UniProt O60674).
T2 construct: JAK2 (a.a. 828-1132); His tag (N); made in house; host or cells: insect cells (baculovirus)
T2 sequence (O60674 828-1132): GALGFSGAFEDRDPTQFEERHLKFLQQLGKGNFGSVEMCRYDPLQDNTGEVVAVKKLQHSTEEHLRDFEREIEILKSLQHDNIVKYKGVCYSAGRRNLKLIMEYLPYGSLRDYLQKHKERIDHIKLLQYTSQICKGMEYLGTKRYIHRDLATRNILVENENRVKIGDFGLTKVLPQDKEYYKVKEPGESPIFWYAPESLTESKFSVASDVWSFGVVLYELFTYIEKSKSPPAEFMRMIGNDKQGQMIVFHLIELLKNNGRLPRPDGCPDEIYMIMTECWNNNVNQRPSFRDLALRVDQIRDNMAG
The test can be described thus: In Vitro JAK Kinase Assay (HTRF, phosphorylation of a biotinylated peptide), JAK2. The test is classed as biochemical. To be noted: Table 5; assay of Example A. A digest of the protocol:
as §1

T1 sequence (P23458 849-1154): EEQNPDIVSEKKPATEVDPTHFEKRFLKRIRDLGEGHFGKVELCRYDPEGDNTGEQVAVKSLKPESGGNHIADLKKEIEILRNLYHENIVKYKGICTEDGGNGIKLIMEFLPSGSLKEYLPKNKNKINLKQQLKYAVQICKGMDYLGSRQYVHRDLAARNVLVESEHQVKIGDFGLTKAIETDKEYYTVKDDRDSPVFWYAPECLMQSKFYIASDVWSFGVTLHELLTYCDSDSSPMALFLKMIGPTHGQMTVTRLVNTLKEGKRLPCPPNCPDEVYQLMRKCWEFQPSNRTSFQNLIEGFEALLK

A word on the IC50: it is the concentration that inhibits the measured activity by half. A high value points to weaker potency. `N#CCC1(n2cc(-c3ncnc4[nH]ccc34)cn2)CN([C@H]2CC[C@@H](Oc3cc(CN)cc(C(F)(F)F)n3)CC2)C1` [Example 66, {1-(cis-4-{[4-(aminomethyl)-6-(trifluoromethyl)pyridin-2-yl]oxy}cyclohexyl)-3-[4-(7H-pyrrolo[2,3-d]pyrimidin-4-yl)-1H-pyrazol-1-yl]azetidin-3-yl}acetonitrile tris(trifluoroacetate)] returned an IC50 in test [1] of less than 10 nM. Moreover, the “JAK2/JAK1 IC50 ratio” value in test [2] is “≧10”.

As for `CNCc1cc(O[C@H]2CC[C@@H](N3CC(CC#N)(n4cc(-c5ncnc6[nH]ccc56)cn4)C3)CC2)nc(C(F)(F)F)c1` [Example 67, {1-(cis-4-{[4-[(methylamino)methyl]-6-(trifluoromethyl)pyridin-2-yl]oxy}cyclohexyl)-3-[4-(7H-pyrrolo[2,3-d]pyrimidin-4-yl)-1H-pyrazol-1-yl]azetidin-3-yl}acetonitrile tris(trifluoroacetate)], the IC50 in test [1] is less than 10 nM. For the same molecule, the “JAK2/JAK1 IC50 ratio” value in test [2] is given as “≧10”.

As for `CN(C)Cc1cc(O[C@H]2CC[C@@H](N3CC(CC#N)(n4cc(-c5ncnc6[nH]ccc56)cn4)C3)CC2)nc(C(F)(F)F)c1` [Example 68, {1-(cis-4-{[4-[(dimethylamino)methyl]-6-(trifluoromethyl)pyridin-2-yl]oxy}cyclohexyl)-3-[4-(7H-pyrrolo[2,3-d]pyrimidin-4-yl)-1H-pyrazol-1-yl]azetidin-3-yl}acetonitrile tris(trifluoroacetate)], the IC50 in test [1] was less than 10 nM. Moreover, the “JAK2/JAK1 IC50 ratio” value in test [2] is listed as “≧10”.

Regarding `CC(C)(O)c1cc(O[C@H]2CC[C@@H](N3CC(CC#N)(n4cc(-c5ncnc6[nH]ccc56)cn4)C3)CC2)nc(C(F)(F)F)c1` [Example 69, {1-(cis-4-{[4-(1-hydroxy-1-methylethyl)-6-(trifluoromethyl)pyridin-2-yl]oxy}cyclohexyl)-3-[4-(7H-pyrrolo[2,3-d]pyrimidin-4-yl)-1H-pyrazol-1-yl]azetidin-3-yl}acetonitrile bis(trifluoroacetate)], the IC50 in test [1] is less than 10 nM. Further, the “JAK2/JAK1 IC50 ratio” value in test [2] is “≧10”.

Consider `N#CCC1(n2cc(-c3ncnc4[nH]ccc34)cn2)CN([C@H]2CC[C@@H](Oc3cc(CNCCCO)cc(C(F)(F)F)n3)CC2)C1` [Example 70, {1-(cis-4-{[4-{[(3-hydroxypropyl)amino]methyl}-6-(trifluoromethyl)pyridin-2-yl]oxy}cyclohexyl)-3-[4-(7H-pyrrolo[2,3-d]pyrimidin-4-yl)-1H-pyrazol-1-yl]azetidin-3-yl}acetonitrile tris(trifluoroacetate)], for which, in test [1], the IC50 is less than 10 nM. The “JAK2/JAK1 IC50 ratio” value in test [2] is reported as “≧10”.

On to `N#CCC1(n2cc(-c3ncnc4[nH]ccc34)cn2)CN([C@H]2CC[C@@H](Oc3cc(CNC4CC4)cc(C(F)(F)F)n3)CC2)C1` [Example 72, {1-(cis-4-{[4-[(cyclopropylamino)methyl]-6-(trifluoromethyl)pyridin-2-yl]oxy}cyclohexyl)-3-[4-(7H-pyrrolo[2,3-d]pyrimidin-4-yl)-1H-pyrazol-1-yl]azetidin-3-yl}acetonitrile tris(trifluoroacetate)], for which, in test [1], the IC50 is less than 20 nM. In addition, the “JAK2/JAK1 IC50 ratio” value in test [2] is reported as “≧10”.

Turning to `C[C@@H](CO)NCc1cc(O[C@H]2CC[C@@H](N3CC(CC#N)(n4cc(-c5ncnc6[nH]ccc56)cn4)C3)CC2)nc(C(F)(F)F)c1` [Example 73, {1-(cis-4-{[4-({[(1S)-2-hydroxy-1-methylethyl]amino}methyl)-6-(trifluoromethyl)pyridin-2-yl]oxy}cyclohexyl)-3-[4-(7H-pyrrolo[2,3-d]pyrimidin-4-yl)-1H-pyrazol-1-yl]azetidin-3-yl}acetonitrile tris(trifluoroacetate)], the IC50 in test [1] is less than 10 nM. The “JAK2/JAK1 IC50 ratio” value in test [2] is reported as “≧10”.

`N#CCC1(n2cc(-c3ncnc4[nH]ccc34)cn2)CN([C@H]2CC[C@@H](Oc3cc(CNCCO)cc(C(F)(F)F)n3)CC2)C1` [Example 74, {1-(cis-4-{[4-{[(2-hydroxyethyl)amino]methyl}-6-(trifluoromethyl)pyridin-2-yl]oxy}cyclohexyl)-3-[4-(7H-pyrrolo[2,3-d]pyrimidin-4-yl)-1H-pyrazol-1-yl]azetidin-3-yl}acetonitrile tris(trifluoroacetate)] displayed an IC50 in test [1] of less than 10 nM. The “JAK2/JAK1 IC50 ratio” value in test [2] is “≧10”.

`C[C@H](CO)NCc1cc(O[C@H]2CC[C@@H](N3CC(CC#N)(n4cc(-c5ncnc6[nH]ccc56)cn4)C3)CC2)nc(C(F)(F)F)c1` [Example 75, {1-(cis-4-{[4-({[(1R)-2-hydroxy-1-methylethyl]amino}methyl)-6-(trifluoromethyl)pyridin-2-yl]oxy}cyclohexyl)-3-[4-(7H-pyrrolo[2,3-d]pyrimidin-4-yl)-1H-pyrazol-1-yl]azetidin-3-yl}acetonitrile tris(trifluoroacetate)]: in test [1], the IC50 was less than 10 nM. Besides, the “JAK2/JAK1 IC50 ratio” value in test [2] is given as “≧10”.

On to `N#CCC1(n2cc(-c3ncnc4[nH]ccc34)cn2)CN([C@H]2CC[C@@H](Oc3cc(CNCC4CC4)cc(C(F)(F)F)n3)CC2)C1` [Example 76, {1-(cis-4-{[4-{[(cyclopropylmethyl)amino]methyl}-6-(trifluoromethyl)pyridin-2-yl]oxy}cyclohexyl)-3-[4-(7H-pyrrolo[2,3-d]pyrimidin-4-yl)-1H-pyrazol-1-yl]azetidin-3-yl}acetonitrile tris(trifluoroacetate)], for which the IC50 in test [1] was less than 10 nM. Besides, the “JAK2/JAK1 IC50 ratio” value in test [2] was “≧10”.

Consider `N#CCC1(n2cc(-c3ncnc4[nH]ccc34)cn2)CN([C@H]2CC[C@@H](Oc3cc(CNC4CCC4)cc(C(F)(F)F)n3)CC2)C1` [Example 77, {1-(cis-4-{[4-[(cyclobutylamino)methyl]-6-(trifluoromethyl)pyridin-2-yl]oxy}cyclohexyl)-3-[4-(7H-pyrrolo[2,3-d]pyrimidin-4-yl)-1H-pyrazol-1-yl]azetidin-3-yl}acetonitrile tris(trifluoroacetate)], for which, in test [1], the IC50 was less than 10 nM. Moreover, the “JAK2/JAK1 IC50 ratio” value in test [2] was “≧10”.

`N#CCC1(n2cc(-c3ncnc4[nH]ccc34)cn2)CN([C@H]2CC[C@@H](Oc3cc(CN4CCC4)cc(C(F)(F)F)n3)CC2)C1` [Example 78, {1-(cis-4-{[4-(azetidin-1-ylmethyl)-6-(trifluoromethyl)pyridin-2-yl]oxy}cyclohexyl)-3-[4-(7H-pyrrolo[2,3-d]pyrimidin-4-yl)-1H-pyrazol-1-yl]azetidin-3-yl}acetonitrile tris(trifluoroacetate)] returned an IC50 in test [1] of less than 10 nM. Further, the “JAK2/JAK1 IC50 ratio” value in test [2] is “≧10”.

The molecule `N#CCC1(n2cc(-c3ncnc4[nH]ccc34)cn2)CN([C@H]2CC[C@@H](Oc3cc(CN4CC(O)C4)cc(C(F)(F)F)n3)CC2)C1` [Example 79, {1-(cis-4-{[4-[(3-hydroxyazetidin-1-yl)methyl]-6-(trifluoromethyl)pyridin-2-yl]oxy}cyclohexyl)-3-[4-(7H-pyrrolo[2,3-d]pyrimidin-4-yl)-1H-pyrazol-1-yl]azetidin-3-yl}acetonitrile tris(trifluoroacetate)] had an IC50 in test [1] of less than 10 nM. Besides, the “JAK2/JAK1 IC50 ratio” value in test [2] was “≧10”.

On to `CNC(=O)c1cc(O[C@H]2CC[C@@H](N3CC(CC#N)(n4cc(-c5ncnc6[nH]ccc56)cn4)C3)CC2)nc(C(F)(F)F)c1` [Example 80, 2-[(cis-4-{3-(cyanomethyl)-3-[4-(7H-pyrrolo[2,3-d]pyrimidin-4-yl)-1H-pyrazol-1-yl]azetidin-1-yl}cyclohexyl)oxy]-N-methyl-6-(trifluoromethyl)isonicotinamide bis(trifluoroacetate)], for which the IC50 in test [1] was less than 10 nM. The “JAK2/JAK1 IC50 ratio” value in test [2] is “≧10”.

In test [1], `CN(C)C(=O)c1cc(O[C@H]2CC[C@@H](N3CC(CC#N)(n4cc(-c5ncnc6[nH]ccc56)cn4)C3)CC2)nc(C(F)(F)F)c1` [Example 81, 2-[(cis-4-{3-(cyanomethyl)-3-[4-(7H-pyrrolo[2,3-d]pyrimidin-4-yl)-1H-pyrazol-1-yl]azetidin-1-yl}cyclohexyl)oxy]-N,N-dimethyl-6-(trifluoromethyl)isonicotinamide bis(trifluoroacetate)] showed a concentration for half-maximal inhibition (IC50) of less than 10 nM. For the same molecule, the “JAK2/JAK1 IC50 ratio” value in test [2] is reported as “≧10”.

`CN(CCO)C(=O)c1cc(O[C@H]2CC[C@@H](N3CC(CC#N)(n4cc(-c5ncnc6[nH]ccc56)cn4)C3)CC2)nc(C(F)(F)F)c1` [Example 82, 2-[(cis-4-{3-(cyanomethyl)-3-[4-(7H-pyrrolo[2,3-d]pyrimidin-4-yl)-1H-pyrazol-1-yl]azetidin-1-yl}cyclohexyl)oxy]-N-(2-hydroxyethyl)-N-methyl-6-(trifluoromethyl)isonicotinamide bis(trifluoroacetate)] yielded an IC50 in test [1] of less than 10 nM. Besides, in test [2], the “JAK2/JAK1 IC50 ratio” value is on record as “≧10”.

In turn, `CC(C)NC(=O)c1cc(O[C@H]2CC[C@@H](N3CC(CC#N)(n4cc(-c5ncnc6[nH]ccc56)cn4)C3)CC2)nc(C(F)(F)F)c1` [Example 83, 2-[(cis-4-{3-(cyanomethyl)-3-[4-(7H-pyrrolo[2,3-d]pyrimidin-4-yl)-1H-pyrazol-1-yl]azetidin-1-yl}cyclohexyl)oxy]-N-isopropyl-6-(trifluoromethyl)isonicotinamide bis(trifluoroacetate)] gave an IC50 in test [1] of less than 10 nM. Also, the “JAK2/JAK1 IC50 ratio” value in test [2] is on record as “≧10”.

`C[C@@H](CO)NC(=O)c1cc(O[C@H]2CC[C@@H](N3CC(CC#N)(n4cc(-c5ncnc6[nH]ccc56)cn4)C3)CC2)nc(C(F)(F)F)c1` [Example 84, 2-[(cis-4-{3-(cyanomethyl)-3-[4-(7H-pyrrolo[2,3-d]pyrimidin-4-yl)-1H-pyrazol-1-yl]azetidin-1-yl}cyclohexyl)oxy]-N-[(1S)-2-hydroxy-1-methylethyl]-6-(trifluoromethyl)isonicotinamide bis(trifluoroacetate)] had an IC50 in test [1] of less than 10 nM. Also, the “JAK2/JAK1 IC50 ratio” value in test [2] is given as “≧10”.
